Like-named read-outs stand apart in the source and are kept apart here.
Columns and labels:
[1] = tested on: sAPPα; assay: sAPPα levels in SY5Y neuroblastoma cells (6E10 immunoreactivity, Western blot); assay type: cell-based; conditions: 1 μM and 5 μM
[2] = tested on: γ-secretase; conditions: CHO-APPswe cells, 0.1 micromolar, 24 hours
[3] = in vivo; conditions: B6SJ1, mouse, brain relative to serum, oral, 1500 mg/kg of diet, level of nimesulide in the brain relative to serum levels, mice, nimesulide 1500 mg/kg of diet for three months, brain parenchyma
[4] = tested on: complement ClqB; conditions: in vivo; cited from earlier work
[5] = tested on: Aβ40; conditions: CHO cells with APPswe and hCOX-2, nimesulide concentrations down to 10^−12 M
Text: FIG. 10A-C. […] (C) Aβ42 levels in CHO cells transfected with APPswe and LacZ (open bars) or with APPswe and hCOX-2 (filled bars). Data are expressed as means±S.E.M. (percent of control LacZ transfection from three independent studies).
Using an adenovirus vector, hCOX-2 was transfected and expressed in CHO cells which had been stably transfected with APPswe (see above).

[6] = tested on: PGE2; conditions: mice, same brain, nimesulide 1500 mg/kg of diet for three months
[7] = clinical; conditions: human, po, 100 mg twice daily
Protocol: A tolerability study was performed in elderly human subjects (Aisen et al., 2002, Neurology 58(7):1050-1054).

[8] = mice
[9] = cited from earlier work
[10] = tested on: Aβ42
Text: (§1) FIG. 11A-B. CHO cells were transfected with APPswe and LacZ (open bars) or with APPswe and hCOX-2(filled bars), as in FIG. 10A-C.

[11] = tested on: Aβ42; conditions: CHO-APPswe cells, 0.1 micromolar, 24 hours
Protocol: (§2) The amount of amyloid β peptides produced was measured by an ELISA assay from BioSource (Camarillo, Calif.). Samples were diluted 1:10 in buffer (0.05% (v/v) Tween-20, 1 mM Pefabloc protease inhibitors) followed by centrifugation for 20 minutes at 4° C. Total Aβ40 or Aβ42 were measured by sandwich ELISA following the manufacturer's instructions.

[12] = tested on: Aβ40; conditions: CHO-APPswe cells, 0.1 micromolar, 24 hours
Protocol: as §2

[13] = tested on: γ-secretase
Protocol: as §1
CHO cells were transfected with APPswe and LacZ (open bars) or with APPswe and hCOX-2 (filled bars), as in the preceding Section 11, and γ-secretase and Aβ42 levels were measured.

[14] = CHO-APPswe cells transfected with hCOX-2, 10^−9 molar

Compound | levels of sAPPα relative to controls (6E10 immunoreactivity) [1] | inhibition of γ-secretase activity [2] | Kp at 3 months [3] | effect on hCOX-2 induced increase of ClqB levels in the brain [4] | effect on hCOX-2 mediated increase in Aβ40 levels [5] | decrease of PGE2 content [6] | concentration at 24 weeks ([7]; brain) | concentration at 24 weeks ([7]; serum) | necropsy findings ([8]; nimesulide 1500 mg/kg of diet (50 mg/kg per day) for 3 months) | tolerability ([8]; nimesulide 1500 mg/kg of diet for 3 months) | tolerability, long term treatment ([9]; clinical study, up to 104 weeks) | cognitive benefit in AD patients ([9]; twelve-week clinical trial) | tolerability in AD patients ([9]; twelve-week clinical trial) | effect on hCOX-2 increased Aβ42 concentration ([10]; CHO-APPswe cells transfected with hCOX-2, 10^−6 molar) | effect on hCOX-2 increased Aβ42 concentration [10, 14] | decrease of the amount of Aβ42 [11] | decrease of the amount of Aβ40 [12] | effect on hCOX-2 mediated increase of γ-secretase activity [13, 14] | additional decrease of γ-secretase levels ([13]; both hCOX-2 and LacZ-transfected CHO-APPswe cells, 10^−6 molar)
CS(=O)(=O)c1ccc(C2=C(c3ccccc3)C(=O)OC2)cc1 [Rofecoxib] | decreased | – | – | – | – | – | – | – | – | – | – | – | – | – | – | – | – | – | –
CS(=O)(=O)Nc1ccc([N+](=O)[O-])cc1Oc1ccccc1 [nimesulide, 4-nitro-2-phenoxymethanesulfonanilide] | – | approximately 40% | ~0.1 | able to block that increase | virtually nullified | approximately 50% | ~1 µM | ~10 µM | did not demonstrate any gross alterations or renal or intestinal abnormalities | well tolerated | well tolerated | no cognitive benefit was observed | well tolerated | decreased to essentially control levels | slightly decreased | 20-25% | 20-25% | decreased to control levels | 10-15%

— US20060111447A1, “Inhibiting progressive cognitive impairment” (priority 2002, published 2006)
